Experimental data: patent publication US5387409A, “Boronic acid adducts of rhenium dioxime and technetium-99m dioxime complexes containing a biochemically active group” (Bracco International B.V., priority 1992, dated 1995)

What was measured:
[1] = Cyclic voltammetry in DMF (peak potential vs. Ag/AgNO3); format: physicochemical; conditions: for Epc(DMF): cathodic peak potential in DMF vs. Ag/AgNO3 (Table 3); for Peak Potential (EP), Nitro-base Anodic / Peak Potential (EP), Nitro-base Cathodic: DMF, scan rate = 100 mV/sec, Ag/AgNO3 reference (Table 2)
xanthine oxidase = test: Enzyme assay: xanthine oxidase reduction (disappearance of the nitro compound, UV/Visible 326 nm); format: biochemical
Experimental: The nitroimidazole boronic acids in this invention were examined in an assay using the enzyme xanthine oxidase. […] All reagents were degassed prior to mixing by passage of argon over the surface for 20 minutes. Loss of the nitro group (an indication of reduction) was monitored every 5 minutes using a UV/Visible spectrophotometer set at 326 nm. The half-lives of disappearance of the nitro compounds were determined by plotting log (concentration) mmole/ml vs time for all compounds studied.

[2] = Electrochemical peak potential (cathodic) in water vs. saturated calomel electrode; format: physicochemical; conditions: cathodic peak potential in water vs. saturated calomel electrode (Table 3)
[3] = Biodistribution: lung uptake of amine-containing 99mTc (BATO) complexes in rats; format: in vivo; conditions: I.V.
Experimental: Biodistribution Results for Amine-substituted Boron complexes, ^99m Tc(chloride)(dimethylglyoxime)3 B-R (wherein R is or contains an amine)
The other complexes listed were prepared using the methodology described in Example 2. Lung uptake at 5 and 60 minutes post I.V. administration of these compounds was noted.

estrogen receptor = test: In vitro estrogen receptor binding studies, cytosolic preparations of isolated rat uteri; conditions: rat uteri cytosol; preparations with specific activity from 400 to 2000 Ci/mmol
[4] = hypoxanthine, pH 7.4, 0.25 μMoles nitro compound

Epc(DMF) [1] [V]	half life (enzyme assay) (xanthine oxidase; [4]) [min]	Epc(Aqueous) [2] [V]	Compound	Peak Potential (EP), Nitro-base Anodic [1]	Peak Potential (EP), Nitro-base Cathodic [1]	also measured
-1.80	95	-0.50	O=[N+]([O-])c1cn(Cc2ccc(B(O)O)cc2)cn1 [BB4NO2, 1-(4-Nitroimidazole)-benzylboronic acid]	–	–	–
–	11	–	O=[N+]([O-])c1nccn1Cc1ccc(B(O)O)cc1 [BBNO2, 1-(2-Nitroimidazoyl)benzylboronic acid]	–	–	–
-1.53	42.5	-0.30	O=[N+]([O-])c1nccn1CCc1ccc(B(O)O)cc1 [BPhEtNO2, 4-(2-Nitroimidazolylethyl)phenyl boronic acid]	–	–	–
-1.56	24	-0.30	O=[N+]([O-])c1nccn1CC=CB(O)O [BPropeneNO2, 2-Nitroimidazolyl-N1-[2-propenyl]-3-boronic acid]	–	–	–
-1.62	–	-0.46	Cc1ncc([N+](=O)[O-])n1CCO [Metronidazole, reference compound]	-1.55	-1.63	half life (enzyme assay) (xanthine oxidase; pH 7.4): > 1440 min
–	–	–	^99 Tc(chlorine)(1,2-cyclohexanedione dioxime)3 1-(2-nitroimidazoyl)benzyl boron [Complex of Example 13]	-1.50	-1.56	–
–	–	–	^99 Tc(chlorine)(dimethylglyoxime)3 -1-(2-nitroimidazoyl)benzylboron [Complex of Example 15]	-1.51	-1.58	–
–	–	–	^99m Tc(chloride)(dimethylglyoxime)3 [4-[2-[(1-methylethyl)amino]propyl]phenyl]boron	–	–	% Injected Dose in Lungs, 5 min. P.I. ([3]; 5 min. post-injection): 3.25 % Injected Dose; % Injected Dose in Lungs, 60 min. P.I. ([3]; 60 min. post-injection): 2.19 % Injected Dose
–	–	–	^99m/99 Tc(chloride)(dimethylglyoxime)3 (estradiol boron) [technetium labeled estradiol]	–	–	specific binding (estrogen receptor): 10-30 % of the total bound activity

Compound	Epc(DMF) [1] [V]	half life (enzyme assay) (xanthine oxidase; [4]) [min]	Epc(Aqueous) [2] [V]	Peak Potential (EP), Nitro-base Anodic [1]	Peak Potential (EP), Nitro-base Cathodic [1]	also measured
COCC(O)Cn1ccnc1[N+](=O)[O-] (stereo not drawn) [Misonidazole, reference compound]	-1.49	45	-0.33	-1.43	-1.51	–
